Laboratory results published in patent US20090191173A1, “Induction Of Neurogenesis And Stem Cell Therapy In Combination With Copolymer 1” (priority 2004, published 2009).

How the values were obtained:
EAE mice [1] = test: Proliferation, migration and differentiation of neuronal progenitor cells in EAE mice (BrdU, DCX, NeuN); format: in vivo, mouse
Experimental: (xxxix) BrdU. 5-Bromo-2′-deoxyuridine (BrdU, Sigma), a thymidine analog incorporating into the DNA of dividing cells, was injected intraperitoneally (50 mg/kg), either concurrently with GA treatment (once each day), or immediately after completion of GA injections (twice each day).
(xli) Immunohistochemistry. […] Control slides were incubated with secondary antibody alone.
(xliii) Quantification. […] Quantification was performed in coronal sections, in the SVZ starting at the level of the medial septum and 640 μm backward, and in the hippocampal DG (in both blades for BrdU/DCX or in the upper blade for DCX) through its septotemporal axis. Quantification in the RMS was done on sagital sections starting at 1 mm from the median line of the brain and 640 μm laterally. The Results for each brain structure were averaged from 8 unilateral levels per mouse (80 μm apart, 3-4 mice in each treatment group) and are expressed as change fold from naive controls. Quantification of BrdU/NeuN double positive cells in the cortex was performed in areas of 0.15 mm^2, selected at random (10 sections counted/mouse, 3 mice in each treatment group).
(xliv) Statistical analysis. For BrdU and DCX analysis, the mean±SEM (averaged from 8 unilateral levels per mouse, 3-4 mice in each treatment group) was subjected to one-way analysis of variance (ANOVA), followed by Fishers' least significant difference (LSD) at comparison-wise error rate of 0.05, where appropriate. Since control values for BrdU incorporation were reduced as a function of time, results were expressed as change fold from naive controls injected concurrently with BrdU. The number of BrdU/NeuN double-positive cells in the cortex was averaged from 10 sections per mouse (3 mice in each treatment group) and expressed as cells per mm^3.

EAE mice [2] = tested on: EAE mice
Experimental: GA treatment was applied by 5-8 consecutive daily subcutaneous injections (2 mg/mouse) in different stages of disease [i.e., (1) starting immediately after EAE induction (prevention treatment), (2) starting after appearance of disease manifestations at day 20 (suppression treatment), or (3) starting during the chronic phase 45 days after induction (delayed suppression).
(xl) Perfusion. Animals were deeply anesthetized with Nembutal and perfused transcardially with 2.5% paraformaldehyde. Brains were removed, postfixed in 1% paraformaldehyde and cryoprotected with 15% sucrose solution in PBS. Free-floating sections (16 μm thick) were cut coronally or sagitaly with a sliding microtome (Leica SM 2000r) through the entire brain and collected serially in PBS.
(xli) Immunohistochemistry. To detect BrdU-incorporated cells, sections were denatured in 2M HCl in PBS at 37° C. for 30 min and then neutralized with 0.1M borate buffer (pH 8.5) for 10 min at room temperature. To detect specific cell types, sections were pre-incubated in PBS solution containing 20% serum and 0.5% Triton-X-100 for 1 h, and then incubated overnight at room temperature with primary antibodies. The following primary antibodies were used: goat anti-doublecortin (DCX) C-18 (1:200, Santa Cruz Biotechnology, Santa Cruz, Calif.), mouse anti-NeuN (1:300, Chemicon, Temecula, Calif.), mouse anti-GFAP (1:100, Pharmingen, San Jose, Calif.), rabbit anti-phospho-histone (1:200, Upstate Biotechnology, Charlottesville, Va.), rat anti-BrdU (1:200, Harlan, Indianapolis, Ind.), rat anti-CD11b (1:50, Pharmingen) and chicken anti-BDNF (1:50, Promega, Madison, Wis.). […]
(xlii) Microscopy. Stained sections were examined and photographed by a confocal microscope (Axiovert 100M; Zeiss, Oberkochen, Germany), or by a fluorescence microscope (E600; Nikon, Tokyo, Japan), equipped with Plan Fluor objectives connected to CCD camera (DMX1200F, Nikon). Digital images were collected and analyzed using Image Pro+software. […]

APP/PS1 Tg mice [3] = test: Hippocampal immunohistochemistry in APP/PS1 Tg mice (Aβ plaques, microglia, NeuN, BrdU, DCX); format: in vivo, mouse
Experimental: (xxii) Glatiramer acetate vaccination. Each mouse was subcutaneously injected five times with a total of 100 μg of glatiramer acetate (GA (TV-5010), MW 13.5-18.5 kDa, average 16 kDa, Teva Pharmaceutical Industries Ltd., Petach Tikva, Israel), emulsified in 200 μl PBS×1, from experimental day 0 until day 24, twice during the first week and once a week thereafter.
(xxiv) Administration of BrdU and tissue preparation. BrdU was dissolved by sonication in PBS and injected i.p. into each mouse (50 mg/kg body weight; 1.25 mg BrdU in 200 μl PBS×1). Starting from experimental day 22 after the first GA vaccination, BrdU was injected i.p. twice daily, every 12 h for 2.5 days, to label proliferating cells. Three weeks after the first BrdU injection the mice were deeply anesthetized and perfused transcardially, first with PBS and then with 4% paraformaldehyde. The whole brain was removed, postfixed overnight, and then equilibrated in phosphate-buffered 30% sucrose. Free-floating 30-μm sections were collected on a freezing microtome (Leica SM2000R) and stored at 4° C. prior to immunohistochemistry.
For immunohistochemistry, tissue sections were treated with a permeabilization/blocking solution containing 10% FCS, 2% bovine serum albumin, 1% glycine, and 0.05% Triton X-100 (Sigma-Aldrich, St. Louis). Tissue sections were stained overnight at 4° C. with specified combinations of the following primary antibodies: rat anti-BrdU (1:200; Oxford Biotechnology, Kidlington, Oxfordshire, UK), goat anti-DCX [doublecortin] (1:400; Santa Cruz Biotechnology), and mouse anti-NeuN [neuronal nuclear protein] (1:200; Chemicon, Temecula, Calif.). Secondary antibodies were FITC-conjugated donkey anti-goat, Cy-3-conjugated donkey anti-mouse, and Cy-3- or Cy-5-conjugated donkey anti-rat (1:200; Jackson ImmunoResearch, West Grove, Pa.). For labeling of microglia we used either CD11b (MAC1; 1:50; BD-Pharmingen) or FITC-conjugated Bandeiraea simplicifolia isolectin B4 (IB4, 1:50; Sigma-Aldrich, Rehovot). To detect expression of cell-surface MHC-II proteins we used anti-MHC-II Abs (rat, clone IBL-5/22; 1:50; Chemicon, Temecula, Calif.). To detect expression of human Aβ we used anti-Aβ (human amino-acid residues 1-17) (mouse, clone 6E10, Chemicon, Temecula, Calif.). Expression of IGF-I was detected by goat anti-IGF-I Abs (1:20; R&D Systems). Expression of TNF-α was detected by goat anti-TNF-α Abs (1:100; R&D Systems). T cells were detected with anti-CD3 polyclonal Abs (rabbit, 1:100; DakoCytomation, Calif.). Propidium iodide (1 μg/ml; Molecular Probes, Invitrogen, Carlsbad, Calif.) was used for nuclear staining.
For in-vivo experiments, the number of Aβ^+ plaques and CD11b^+/IB-4^+ microglia in the hippocampus were counted at 300-μm intervals from 6-8 coronal sections (30 μm) from each mouse. Neurogenesis in the DG was evaluated by counting of premature neurons (DCX^+), proliferating cells (BrdU^+), and newly formed mature neurons (BrdU^+/NeuN^+) in six coronal sections (30 μm) from each mouse. Specificity of BrdU^+/NeuN^+ co-expression was assayed using the confocal microscope (LSM 510) in optical sections at 1-μm intervals/. Cell counts, numbers of Aβ^+ plaques, plaque areas, and intensity of NeuN staining per unit area in the DG were evaluated automatically using Image-Pro Plus 4.5 software (Media Cybernetics).

EAE mice [4] = test: Clinical manifestations of MOG 35-55-induced EAE; format: in vivo; conditions: 5-8 daily s.c. injections 2 mg/mouse; prevention, suppression or delayed suppression
APP/PS1 Tg mice [5] = test: Morris water maze (MWM) in APP/PS1 double-transgenic AD mice; format: in vivo, mouse; conditions: GA (TV-5010) s.c. vaccination, tested five weeks after first injection
[6] = EAE+GA mice, one month after completion of GA treatment
[7] = GA vaccinated vs untreated Tg mice

Question: Which “migration of neuronal progenitors outside the RMS” value (EAE mice [1]; EAE mice treated with GA) does the source give for glatiramer acetate [GA] here?
Answer: The value was “migration into a region corresponding to the lateral cortical stream (LCS)”.

Question: What about the “neuronal proliferation in the hippocampus (BrdU incorporation, DCX expression)” value (EAE mice [1]; EAE+GA mice) of the same substance?
Answer: The value was “increased proliferation”.

Question: What about the “BDNF expression by migrating DCX+ cells” value (EAE mice [1]; EAE+GA mice, nucleus accumbens and hippocampus) of the same substance?
Answer: The value was “manifested extensive expression of BDNF”.

Question: And the “BrdU+/NeuN+ cells as share of all NeuN+ cells in the cortex” value (EAE mice [1]; [6])?
Answer: The value was 1.3%.

Question: And the “BrdU+/NeuN+ double-labeled cells in the cortex” value (EAE mice [1]; [6])?
Answer: The value was 128±46 /mm^3.

Question: And the “progenitors migrating to lesions” value (EAE mice [1]; EAE+GA vs EAE mice)?
Answer: Its value is “much higher”.

Question: What about the “neuronal proliferation in the SVZ” value (EAE mice [1]; EAE+GA vs untreated EAE mice and controls) of the same substance?
Answer: Its value is “augmented neuronal proliferation in the SVZ”.

Question: What about the “BrdU or DCX expression in SVZ and DG” value (EAE mice [1]; GA injection to naive mice (without EAE)) of the same substance?
Answer: The value was “did not result in significant elevation”.

Question: What about the “BrdU expression in the RMS, increase over EAE mice” value (EAE mice [1]; GA on days 20-25 (suppression)) of the same substance?
Answer: The value was 2.2 fold.

Question: And the “BrdU expression in the RMS, increase over control” value (EAE mice [1]; GA on days 20-25 (suppression))?
Answer: The value was 7.8 fold.

Question: And the “DCX expression in the RMS, increase over EAE mice” value (EAE mice [1]; GA on days 20-25 (suppression))?
Answer: The value was 1.6 fold.

Question: What about the “DCX expression in the RMS, increase over control” value (EAE mice [1]; GA on days 20-25 (suppression)) of the same substance?
Answer: The value was 2.6 fold.

Question: And the “mobilization of progenitors into the RMS” value (EAE mice [1]; injection of GA alone (no EAE))?
Answer: Its value is “enhanced mobilization of progenitors into the RMS, but to a lower extent”.

Question: And the “increase of new neurons in the cortex over EAE mice” value (EAE mice [1]; one month after completion of GA treatment)?
Answer: Its value is 2.6 fold.

Question: And the “DCX expression in the SVZ, elevation over EAE and control” value (EAE mice [1]; prevention treatment)?
Answer: The value was 4 fold.

Question: What about the “MAC-1 expression (microglial activation)” value (EAE mice [2]; EAE+GA vs EAE mice) of the same substance?
Answer: Its value is “significantly reduced”.

Question: And the “neuronal damage in brain” value (EAE mice [2]; EAE+GA vs EAE mice, prevention or suppression treatment)?
Answer: Its value is “considerably less damage”.

Question: And the “neuronal malformations or perivascular infiltrations” value (EAE mice [2]; mouse, in vivo)?
Answer: The value was “did not find neuronal malformations or perivascular infiltrations”.

Question: And the “number of Aβ plaques” value (APP/PS1 Tg mice [3]; GA (TV-5010) vaccinated vs untreated Tg mice, 6 weeks later)?
Answer: The value was “significantly fewer plaques”.

Question: And the “BrdU+ cells in the dentate gyrus” value (APP/PS1 Tg mice [3]; [7])?
Answer: Its value is “significantly more BrdU^+ cells”.

Question: What about the “CD11b+ microglia” value (APP/PS1 Tg mice [3]; [7]) of the same substance?
Answer: Its value is “significantly fewer CD11b^+ microglia”.

Question: What about the “area occupied by the plaques” value (APP/PS1 Tg mice [3]; [7]) of the same substance?
Answer: Its value is “significantly smaller”.

Question: And the “staining for NeuN” value (APP/PS1 Tg mice [3]; [7])?
Answer: The value was “significantly more intense staining for NeuN”.

Question: What about the “MHC-II expression by microglia” value (APP/PS1 Tg mice [3]; GA-vaccinated Tg mice) of the same substance?
Answer: The value was “most of the microglia adjacent to residual Aβ^+ plaques expressed MHC-II”.

Question: And the “DCX+ cells in the DG” value (APP/PS1 Tg mice [3]; relative to non-Tg littermates)?
Answer: The value was “slightly but significantly more”.

Question: And the “clinical manifestations of EAE” value (EAE mice [4])?
Answer: Its value is “ameliorated the clinical manifestations of EAE regardless of the stage in which it was administered”.

Question: And the “MWM performance (spatial learning/memory)” value (APP/PS1 Tg mice [5])?
Answer: Its value is “superior to that of the untreated Tg mice”.
